Data taken from US20120145955A1, “COMPOSITION OF HCFO-1233zd AND POLYOL BLENDS FOR USE IN POLYURETHANE FOAM” (Arkema Inc., priority 2009, published 2012).
Like-named read-outs stand apart in the source and are kept apart here.

How the values were obtained:
[1] = AMES testing (genotoxicity); type: cell-based; conditions: trans isomer of HCFO-1233zd compared with the cis isomer
[2] = Solubility experiments: vapor pressure of blowing agent in polyol in a pressure vessel; type: physicochemical
Experimental: The vapor pressure of a foam blowing agent in polyurethane materials was evaluated in an experimental apparatus consisting of a pressure vessel with magnetic stirring, a pressure transducer and a temperature transducer. The temperature inside the vessel was controlled within 0.1° C. and the pressure controlled to within 0.1%.
Into the pressure vessel (volume about 100 ml), 50 g of polyol was loaded. The vessel was then placed under vacuum to remove air. The change of pressure in the metal cylinder was monitored to ensure that there were no leaks. The blowing agent was introduced into the vessel by the use of a specially designed gas syringe. The amount of blowing agent loaded was verified by measuring the weight of the syringe before and after introduction. The temperature of the vessel was maintained at 50° C. (above the boiling point of the blowing agents being tested) and the speed of the shaker was maintained at 300 rpm. The vapor pressure of the blowing agent was recorded as a function of the time. Sufficient time was allowed for the system to reach equilibrium. After reaching equilibrium, the amount of blowing agent dissolved in the polyol was calculated as the difference between the added blowing agent […] and the blowing agent present in the gas phase of the vessel.
Then another small amount of blowing agent was added in the vessel. The procedure was repeated several times until the pressure in the vessel was equal to the liquid-gas equilibrium vapor pressure of the blowing agent at this temperature (maximum attainable pressure at temperatures below the critical temperature of the blowing agent).

[3] = known to the people skilled in the art; cited from earlier work

FC(F)(F)/C=C/Cl [E-HCFO-1233zd]
genotoxicity in AMES testing [1]: significantly lower genotoxicity | area between the polyether polyol and polyester polyol curves (range of solubilities) ([2]; compared with HCFC141b and HFC245fa, 50° C.): significantly larger | solubility relative to current blowing agents ([2]; polyether polyol and polyester polyol, 50° C.): solubility comparable to current blowing agents | solubility curves (vapor pressure versus part of blowing agent per 100 part of polyol by weight) ([2]; polyether polyol and polyester polyol, 50° C., FIG. 1): between those for HFC245fa and HCFC141b

FC(F)(F)/C=C/Cl [HCFO-1233zd, trifluoro-monochloropropenes]
solubility in polyols ([2]; different ratios of polyether polyols and polyester polyols, benchmarked against HCFC141b and HFC245fa): falls in between HFC245fa and HCFC141b

FC(F)CC(F)(F)F [HFC245fa]
solubility in polyols [3]: relatively less soluble
